Reference: ChEMBL document CHEMBL1141820, “Cytotoxic polyacetylenes from the marine sponge Petrosia sp” (1999)
≈ marks a conversion by molar mass, not a printed value.

What was measured:
Type in all cases: functional
Settings in all cases: read-out: ED50 (the source's name)
[1] = system: HCT-15; assay: Cytotoxicity against human HCT-15 cells
[2] = system: A549; assay: Cytotoxicity against human A549 cells
[3] = system: XF498; assay: Cytotoxicity against human XF498 cells
[4] = system: SK-OV-3; assay: Cytotoxicity against human SKOV3 cells
[5] = system: SK-MEL-2; assay: Cytotoxicity against human SK-MEL-2 cells

Compound | EC50 [1] | EC50 [2] | EC50 [3] | EC50 [4] | EC50 [5]
C#C/C=C\CCCCCCCCCCCCCC/C=C/CCCC/C=C/CCCCC#C[C@@H](O)C#CCCCCCC/C=C/[C@H](O)C#C | 1 µg/mL (≈ 1.53 µM) | 1.1 µg/mL (≈ 1.68 µM) | 1.7 µg/mL (≈ 2.6 µM) | 0.6 µg/mL (≈ 0.916 µM) | 1.1 µg/mL (≈ 1.68 µM)
C#CC(O)/C=C/CCCCCCC#CC/C=C/CCCCCCCCC/C=C/C(O)C#C (stereo not given) | 1.2 µg/mL (≈ 2.75 µM) | 1.4 µg/mL (≈ 3.21 µM) | 1.2 µg/mL (≈ 2.75 µM) | 0.1 µg/mL (≈ 0.229 µM) | 0.2 µg/mL (≈ 0.458 µM)
C#C/C=C/[C@@H](O)CCCCCCCCC/C=C/CC#CCCCCCC/C=C/[C@H](O)C#C [DIDEOXYPETROSYNOL E] | 0.8 µg/mL (≈ 1.83 µM) | 1.3 µg/mL (≈ 2.98 µM) | 0.6 µg/mL (≈ 1.37 µM) | 0.1 µg/mL (≈ 0.229 µM) | 0.1 µg/mL (≈ 0.229 µM)
C#C[C@@H](O)/C=C/CCCCCCC#CC/C=C/C/C=C/CCCCCCCC[C@H](O)C#C [DIDEOXYPETROSYNOL F] | > 3 µg/mL | > 3 µg/mL | > 3 µg/mL | > 3 µg/mL | > 3 µg/mL
COc1cccc2c1C(=O)c1c(O)c3c(c(O)c1C2=O)C[C@@](O)(C(=O)CO)C[C@@H]3O[C@H]1C[C@H](N)[C@H](O)[C@H](C)O1 [DOXORUBICIN] | 0.9 µg/mL (≈ 1.66 µM) | 0.1 µg/mL (≈ 0.184 µM) | 0.2 µg/mL (≈ 0.368 µM) | 0.2 µg/mL (≈ 0.368 µM) | 0.2 µg/mL (≈ 0.368 µM)
C#C/C=C\CCCCCCCCCCCCCC/C=C/CCCC/C=C/CC/C=C/C#C[C@@H](O)C#CCCCCCC/C=C/[C@H](O)C#C [PETROTETRAYNDIOL A] | 1 µg/mL (≈ 1.53 µM) | 1.6 µg/mL (≈ 2.45 µM) | 1.7 µg/mL (≈ 2.6 µM) | 0.5 µg/mL (≈ 0.766 µM) | 0.9 µg/mL (≈ 1.38 µM)
C#C/C=C\CCCCCCCCCCCCCC/C=C/CCCC/C=C/CCCCC#C[C@@H](O)C#CCCCCCCCC[C@H](O)C#C [PETROTETRAYNDIOL B] | 3.7 µg/mL (≈ 5.63 µM) | 1.7 µg/mL (≈ 2.59 µM) | > 3 µg/mL | 2.2 µg/mL (≈ 3.35 µM) | 1.9 µg/mL (≈ 2.89 µM)
